Experimental data as given in US20150140005A1, “Methods and Uses for Proprotein Convertase Subtilisin Kexin 9 (PCSK9) Inhibitors” (Cyon Therapeutics Inc., priority 2012, published 2015).

B1: AMG145: Amgen monoclonal antibody specific for the catalytic domain of PCSK9 (antibody, chains of the INN, looked up, V domains shown)
VH: EVQLVQSGAEVKKPGASVKVSCKASGYTLTSYGISWVRQAPGQGLEWMGWVSFYNGNTNYAQKLQGRGTMTTDPSTSTAYMELRSLRSDDTAVYYCARGYGMDVWGQGTTVTVSS
VL: ESALTQPASVSGSPGQSITISCTGTSSDVGGYNSVSWYQQHPGKAPKLMIYEVSNRPSGVSNRFSGSKSGNTASLTISGLQAEDEADYYCNSYTSTSMVFGGGTKLTVL

Experiments:
[1] = tested on: LPS treated LDLR−/− mice; assay: Responses to LPS treatment (lipopolysaccharide induced systemic inflammation) in LDLR−/− mice treated with saline or berberine; format: in vivo
Procedure: Healthy mice had activity level, body temperature, blood pressure, and cardiac function (echocardiography) assessed at baseline (time 0) as detailed below. Mice were then injected intra-peritoneally with LPS (20 mg/kg, E. coli strain 01 II: B4, Sigma™, St. Louis, Mo.). This dose was determined from previous experiments where, in the background strain of C57BL/6 mice, LPS 20 mg/kg delivered intra-peritoneally was the lowest dose, which was lethal in all cases within 12 hours^24. Then activity level and temperature were measured every hour for six hours. At six hours blood pressure was measured by invasive arterial cannulation and cardiac function (echocardiography) was assessed again.
Activity Index: Mice were observed during 2 minutes for posture and activity. 0 (normal) denotes that there are no times with a hunched posture, and the mouse had spontaneous rapid movements interspersed with eating and drinking. 1 (mild) is occasional brief (5-20 seconds) hunched posture, which spontaneously reverted to normal with ongoing spontaneous rapid movements interspersed with eating and drinking. 2 (mild-moderate) was longer (>20 seconds) in the hunched posture which spontaneously reverted to normal with ongoing spontaneous rapid movements interspersed with eating and drinking. 3 (moderate-severe) was nearly continual hunched posture with movement only when subjected to strong external stimuli. 4 (severe) was continual hunched posture without movement.
Temperature: Temperature was measured hourly using an infra-red thermometer (IR-101 La Crosse Technology, La Crosse USA)) held 2-3 mm from the abdomen.
Blood Pressure: At baseline (time 0) mean arterial blood pressure was measured using a non-invasive tail cuff (CODA 2™, Kent Scientific, Torrington, USA). Six hours after LPS injection, mice were anesthetized using inhaled isofluorane (1-3%). Following a small laparatomy, the abdominal aorta was punctured using a 27 gauge needle then a number 2 French micromanometer catheter (Mikro-tip SPR-838™, Millar Instruments Inc., Houston, Tex.) was inserted into the aorta. Mean arterial pressure was derived using analysis software (PVAN 2.9™, Millar Instruments Inc.).
Echocardiography: Mice were lightly anaesthetized using inhaled isofluorane (1-3%) and placed on a warming blanket. M-mode echocardiograms (ECHO) were targeted from 2D echos obtained using the Vevo 770 ECHO (Visualsonics™, Toronto, ON, Canada) operating at a 120 Hz frame rate. Left parasternal 2D left ventricular cross-sectional echocardiographic images were obtained. The position and angle of the echo transducer is maintained by directing the beam just off the tip of the anterior leaflet of the mitral valve and by maintaining internal anatomic landmarks constant. All measurements are taken from M-mode traces at end-expiration. Left ventricular internal dimensions were measured at end-diastole (defined as the onset of the QRS complex in lead II of the simultaneously obtained electrocardiogram) and at end-systole (defined as minimum internal ventricular dimension).
This is consistent with the hypothesis that the benefit derived from the inhibition of PCSK9 is the result of increased availability of LDLR and a subsequent reduction in plasma LDL.

[2] = tested on: PCSK9; settings: intravenous infusion, as early as 8 hours after injection, non-human primates; cited from earlier work
[3] = LDLR−/− mice, 6 hrs after LPS, median (95% CI), n = 4
[4] = LDLR−/− mice, baseline, median (95% CI), n = 4

| Molecule | Activity 6 hrs LPS [1, 3] | EF 6 hrs LPS [1, 3] | MAP 6 hrs LPS [1, 3] | Activity Baseline [1, 4] | MAP Baseline [1, 4] | Temp. Baseline [1, 4] | Differences between saline and berberine mice in responses to LPS ([1]; LPS treated LDLR−/− mice, berberine vs saline) | Circulating LDL-C levels [2] |
| --- | --- | --- | --- | --- | --- | --- | --- | --- |
| COc1ccc2cc3[n+](cc2c1OC)CCc1cc2c(cc1-3)OCO2 [Berberine, berberine] | 0 (−0.8-0.3) | 26.0 (23.0-29.0) | 53 (52-54) | 0 (0-0) | 109 (93-125)^ | 37.0 (36.2-37.9) | minimal differences | – |
| B1 | – | – | – | – | – | – | – | significant reduction |
